We go through one molecule from patent US20260184700A1, “PDK1 REGULATORY COMPOUND AND COMPOSITION CONTAINING THE SAME” (PROVIBIO CO., LTD., priority 2024, published 2026).

In assay [1] the test system is HCT-116 colon cancer cell lines. In words: Invasion Assay using Matrigel, HCT-116. The class given is cell-based, human. As to conditions: HCT-116, Matrigel invasion, 24 hours treatment. The protocol:
To evaluate the metastasis inhibitory efficacy of the compounds of the present invention on HCT-116 colon cancer cell lines, an Invasion Assay using Matrigel was performed to assess the cells' invasion ability.
First, Matrigel was thawed on ice in RPMI-1640 medium without FBS, then diluted with DMEM at a ratio of 1:20.
The diluted Matrigel mixture was applied to the upper chamber at 100 μl per well, and 750 μl of RPMI-1640 without FBS was added to the lower chamber.
The plates were then incubated at 37° C. for 1 hour to allow the Matrigel to solidify.
After coating, the Matrigel mixture in the upper chamber was removed using a pipette, and the chamber was washed with RPMI without FBS.
Human-derived colorectal cancer cell line HCT-116, obtained from the Korean Cell Bank, was cultured in RPMI-1640 medium containing 10% FBS.
Following stabilization, the cells were harvested using Trypsin-EDTA treatment, centrifuged at 1,200 rpm for 3 minutes, the supernatant was removed, and the cells were resuspended in the same medium, the medium in the lower chamber was replaced with 750 μl of RPMI-1640 supplemented with 10% FBS, and the cells were seeded into the upper chamber at a density of 5×10^4 cells/well.
The cells were cultured for 24 hours after attachment, and then the compounds according to the present invention (G078, G085, G086, G088, G089, PBK-2024-010, PBK-2025-010, PBK-2025-013, PBK-2025-016) and the control substance DMSO were diluted and added to the upper chamber after removing the medium.
Additionally, the medium in the lower chamber was replaced with fresh RPMI-1640 containing FBS, and the culture was continued.
After an additional 24 hours, the medium was removed, and 1 ml of methanol was added for 10 minutes to fix the cells.
Subsequently, 1 ml of Hematoxylin was added and reacted for 5 minutes, followed by 1 ml of Eosin, which was reacted for 30 seconds. The sample was then washed with distilled water (DW).
After staining was complete, any remaining cells in the upper chamber were removed. Finally, the infiltrated cells were observed under a microscope, photographed, and the degree of infiltration was analyzed.

The test system of assay [2] is psoriasis-induced BALB/c mice. In words: Psoriasis animal model (Aldara cream, Imiquimod). Format: in vivo, mouse. The procedure:
To verify the therapeutic effect of the compound according to the present invention on psoriasis, a psoriasis animal model was established as follows, and the compound according to the present invention was administered to evaluate the alleviation of skin lesions and changes in immune cell patterns.
For the establishment of the psoriasis animal model, BALB/c mice (7 weeks old, female, 20 g) were purchased from HanabioTech Co., Ltd. and acclimatized to the rearing environment for one week.
Subsequently, the hair on the mouse back was shaved using a hair removal device for the first time, and then completely shaved using a depilatory cream (Nicrin Cream (80% thioglycolic acid, Il Dong Pharmaceutical)) for the second time. The mice were then kept for 24 hours to confirm the absence of skin damage.
To verify the psoriasis prevention and therapeutic effects of the compounds according to the present invention, the following experimental groups were established:
[Normal control group (Normal, Not Treatment), psoriasis-induced control group (Psoriasis, Not Treatment), psoriasis-induced vehicle control group (Psoriasis, Vehicle), experimental group (GO85, GO86, GO88, GO89, PBK-2024-010, PBK-2024-026, PBK-2025-002, PBK-2025-004, PBK-2025-016, PBK-2025-017, PBK-2025-023)]. […]
Body weights of mice in each group were measured on days 1, 4, and 8 after the start of injection and psoriasis induction. […]
To evaluate the therapeutic effect in a psoriasis-induced mouse model, the PASI (Psoriasis Area and Severity Index) score was measured.
The PASI score is based on three criteria: erythema, scaling, and skin thickness, each scored from 0 (none) to 4 (severe). […]
Observations were conducted daily at the same time, and the same observer visually assessed each criterion and recorded the scores, with the results presented in FIG. 13. […]
All samples were measured in duplicate, and the absorbance was measured at 450 nm using a microplate reader.

Regarding `Nc1nc(NC(=O)CCCCCCCCCCCCN2CCN(CCO)CC2)nc2nc[nH]c12` [Compound 15, 12-[4-(2-hydroxyethyl)piperazin-1-yl]dodecyl-N-(6-aminopurine-2-yl)carboxamide], in assay [1], the “number of infiltrated cells” value is on record as “reduction in the number of infiltrated cells”. The “efficacy in improving dermatological symptoms” value in assay [2] is on record as “excellent efficacy in improving dermatological symptoms”.
